The nature of series [1]: Terminal half life in Beagle dog at 1 mg/kg, iv. In kind it is ADME, organism-based, Canis lupus familiaris. The settings on record: in vivo, read-out: beta t1/2 (converted).
Series [2] can be described thus: Oral bioavailability in Beagle dog at 1 mg/kg. The class given is ADME, organism-based, Canis lupus familiaris. Conditions: in vivo.
The nature of series [3]: AUC (0 to 24 hrs) in Beagle dog at 1 mg/kg, po. The class given is ADME, organism-based, Canis lupus familiaris. Also noted: dose 1 mg/kg, route po. The settings on record: in vivo.
Series [4] in a line: Solubility of the compound in water. The class given is physicochemical.
A short description of series [5]: Solubility of the compound in buffer at pH 2 to 7 at 37 degC. The class given is physicochemical.
Series [6] in a line: in vitro. Conditions: human.
Series [7] in a line: Clearance in Beagle dog at 1 mg/kg, iv. The class given is ADME, organism-based, Canis lupus familiaris. Conditions: in vivo.
Series [8] can be described thus: Acid dissociation constant, pKa of the compound. The class given is physicochemical.
Series [9] in a line: in vitro. The settings on record: rat.
A short description of series [10]: Tmax in Beagle dog at 1 mg/kg, po. In kind it is ADME, organism-based, Canis lupus familiaris. The settings on record: in vivo.
For series [11] the following is noted: rat, in vivo, po, 3 mg/kg, 24 h.
Series [12] is described as follows: Apparent permeability of the compound in human Caco-2 cells at 10 uM. In kind it is ADME, cell-based.
The nature of series [13]: Volume of distribution in Beagle dog at 1 mg/kg, iv. The settings on record: in vivo. The class given is ADME, organism-based, Canis lupus familiaris.
Series [14] is described as follows: in vivo. Conditions: Wistar, rat, po, 3 mg/kg.
Series [15] in a line: in vivo. Conditions: Wistar, rat, iv, 1 mg/kg.
Series [16] is described as follows: in vivo. The settings on record: Wistar, rat, po, 3 mg/kg. The source holds these as a separate data set.
A short description of series [17]: in vivo. Conditions: Wistar, rat, brain and plasma, po, 10 mg/kg.
Series [18] in a line: in vivo. Conditions: Wistar, rat, po, 3 mg/kg. The source holds these as a separate data set.
Series [19] is described as follows: in vivo. The settings on record: Wistar, rat, po, 3 mg/kg. The source holds these as a separate data set.
For series [20] the following is noted: rat, in vivo, po, 3 mg/kg, 24 h. The source holds these as a separate data set.
The conditions of series [21]: rat, in vivo, po, 3 mg/kg, 24 h. This is another data set of the same source.

On to `COCCCN1CCC(c2nnc(-c3nn(C(C)C)c4ccccc34)o2)CC1.O=C(O)C(=O)O`, for which the half-life in series [1] is 6 h. The bioavailability in [2] turned out to be 72%. The AUC(0-t) in [3] came out at 711 ng·h/mL. Further, the solubility in [4] amounted to 17.1 mg/mL; in series [5], 20 mg/mL. Moreover, the metabolised at 0.5 h in “in vitro [6]” (liver microsomes) worked out at 26.2%; in “in vitro [9]” (liver microsomes) it was 25.1%. This compound also gave a clearance in series [7] of 18 mL/min/kg. The pKa in series [8] turned out to be 8.4. For the same compound, the time of peak concentration (Tmax) in [10] was 0.5 h. This compound also gave a Vdss in [11] of 8 L/kg. Moreover, in series [12], the Papp at 10 µM turned out to be 38 ×10⁻⁶ cm/s. In addition, in series [13], the volume of distribution (Vd) is 5.1 L/kg.

In “in vivo [14]”, `CC(C)n1c(=O)c(C(=O)NCCCN2CCCCC2)c(O)c2ccsc21` [PRX-03140] showed a half-life at 24 h of 1.5 h. For the same compound, the clearance at 24 h in the series “in vivo [15]” is 62 mL/min/kg. Moreover, the exposure (AUC) at 24 h in “in vivo [16]” was found to be 22 ng·h/mL. This compound gave a Kp at 1 h in the series “in vivo [17]” of 1.6. In “in vivo [18]”, this compound came in with a bioavailability at 24 h of 2%. Besides, the Vdss in series [11] was 7.6 L/kg. The compound further displayed a maximum concentration (Cmax) at 24 h in the series “in vivo [19]” of 17 ng/mL.

Take `CC(C)n1nc(-c2noc(C3CCN(CC4CCOCC4)CC3)n2)c2ccccc21`: the metabolised at 0.5 h was 40.4% in “in vitro [6]” (microsomes) and 64.1% in “in vitro [9]” (microsomes).

`CC(C)N1CCC(c2nnc(-c3nn(C(C)C)c4ccccc34)o2)CC1` gave a half-life at 24 h in “in vivo [14]” of 1.9 h. Besides, in series [20], the area under the curve (AUC) came to 133 ng·h/mL. In addition, the metabolised at 0.5 h in “in vitro [6]” (liver microsomes) worked out at 15.3%; in the series “in vitro [9]” (liver microsomes) it was 35.7%. Also, in “in vivo [17]”, the concentration ratio (Kp) at 1 h worked out at 3.6. The F in series [21] amounted to 9%. In series [11], this compound came in with a Vdss of 10 L/kg. The compound also yielded a Cmax at 24 h in the series “in vivo [19]” of 91 ng/mL.

Turning to `CC(C)n1nc(-c2nnc(C3CCN(CC4CC4)CC3)o2)c2ccccc21`, in “in vivo [14]”, the half-life at 24 h was 1.7 h. The compound further displayed an AUC in series [20] of 394 ng·h/mL. For the same compound, the results for the metabolised at 0.5 h in the series “in vitro [6]” (liver microsomes) and in the series “in vitro [9]” (liver microsomes) were 43.6% and 83.8%, respectively. Besides, the Vdss in series [11] worked out at 8 L/kg.

`CC(C)n1nc(-c2nnc(C3CCN(CC4CCC4)CC3)o2)c2ccccc21`: the half-life at 24 h in “in vivo [14]” was 2.3 h. The compound also registered a clearance at 24 h in “in vivo [15]” of 81 mL/min/kg. The results for the metabolised at 0.5 h in “in vitro [6]” (liver microsomes) and in the series “in vitro [9]” (liver microsomes) were 62.5% and 55.1%, respectively. In the series “in vivo [16]”, this compound showed an AUC at 24 h of 16 ng·h/mL. The bioavailability at 24 h in the series “in vivo [18]” was 2.6%. Moreover, the Vdss in series [11] came out at 4.9 L/kg. Further, the Cmax at 24 h in “in vivo [19]” was 14 ng/mL.

(Values after ChEMBL document CHEMBL5223084, “Discovery and Preclinical Characterization of Usmarapride (SUVN-D4010): A Potent, Selective 5-HT4 Receptor Partial Agonist for the Treatment of Cognitive Deficits Associated with Alzheimer's Disease” (J Med Chem, 2021).)
